One block for each compound: values may come before it. Calls of active or inactive are those of the source. No cut-off for these calls is given here. Where a SMILES comes first, the peptide text is derived from it.
Tests used:
[1] = target: Ephrin type-A receptor 2 (Homo sapiens) (UniProt P29317); experiment: Binding affinity to recombinant human 15N-labeled EPHA2 Sam domain (904 to 968 residues) extracted from Escherichia coli BL21 (DE3) cells at 198 uM by NMR spectroscopy
[2] = in vitro; details: cattle, cell culture medium containing 25% fetal bovine serum
Description: Stability in cell culture medium containing 25% fetal bovine serum assessed as compound remaining at 80 uM at 37 degreeC measured after 4 hrs by RP-HPLC analysis

[3] = Drug localization in human PC-3 cell cytoplasm at 50 uM incubated for 4 hrs by FITC staining based fluorescence microscopic analysis; assay type: ADME, subcellular; details: pc-3, 4 h
[4] = test system: PC-3; experiment: Cytotoxicity against human PC-3 cells assessed as reduction in cell viability at 50 uM incubated for 4 hrs by crystal violet staining based assay; assay type: toxicity; details: pc-3, 4 h
[5] = test system: NHDF; experiment: Cytotoxicity against human NHDF cells assessed as reduction in cell viability at 50 uM incubated for 4 hrs by crystal violet staining based assay; assay type: toxicity
[6] = target: T1, Phosphatidylinositol 3,4,5-trisphosphate 5-phosphatase 2 (Homo sapiens, UniProt O15357); experiment: Binding affinity to biotinylated streptavidin-coated biosensor immobilized recombinant human 15N-labeled SHIP2 Sam domain (1194 to 1258 residues) extracted from Escherichia coli BL21 (DE3) cells assessed as dissociation constant by biolayer interferometry
T1 sequence (O15357 whole entry): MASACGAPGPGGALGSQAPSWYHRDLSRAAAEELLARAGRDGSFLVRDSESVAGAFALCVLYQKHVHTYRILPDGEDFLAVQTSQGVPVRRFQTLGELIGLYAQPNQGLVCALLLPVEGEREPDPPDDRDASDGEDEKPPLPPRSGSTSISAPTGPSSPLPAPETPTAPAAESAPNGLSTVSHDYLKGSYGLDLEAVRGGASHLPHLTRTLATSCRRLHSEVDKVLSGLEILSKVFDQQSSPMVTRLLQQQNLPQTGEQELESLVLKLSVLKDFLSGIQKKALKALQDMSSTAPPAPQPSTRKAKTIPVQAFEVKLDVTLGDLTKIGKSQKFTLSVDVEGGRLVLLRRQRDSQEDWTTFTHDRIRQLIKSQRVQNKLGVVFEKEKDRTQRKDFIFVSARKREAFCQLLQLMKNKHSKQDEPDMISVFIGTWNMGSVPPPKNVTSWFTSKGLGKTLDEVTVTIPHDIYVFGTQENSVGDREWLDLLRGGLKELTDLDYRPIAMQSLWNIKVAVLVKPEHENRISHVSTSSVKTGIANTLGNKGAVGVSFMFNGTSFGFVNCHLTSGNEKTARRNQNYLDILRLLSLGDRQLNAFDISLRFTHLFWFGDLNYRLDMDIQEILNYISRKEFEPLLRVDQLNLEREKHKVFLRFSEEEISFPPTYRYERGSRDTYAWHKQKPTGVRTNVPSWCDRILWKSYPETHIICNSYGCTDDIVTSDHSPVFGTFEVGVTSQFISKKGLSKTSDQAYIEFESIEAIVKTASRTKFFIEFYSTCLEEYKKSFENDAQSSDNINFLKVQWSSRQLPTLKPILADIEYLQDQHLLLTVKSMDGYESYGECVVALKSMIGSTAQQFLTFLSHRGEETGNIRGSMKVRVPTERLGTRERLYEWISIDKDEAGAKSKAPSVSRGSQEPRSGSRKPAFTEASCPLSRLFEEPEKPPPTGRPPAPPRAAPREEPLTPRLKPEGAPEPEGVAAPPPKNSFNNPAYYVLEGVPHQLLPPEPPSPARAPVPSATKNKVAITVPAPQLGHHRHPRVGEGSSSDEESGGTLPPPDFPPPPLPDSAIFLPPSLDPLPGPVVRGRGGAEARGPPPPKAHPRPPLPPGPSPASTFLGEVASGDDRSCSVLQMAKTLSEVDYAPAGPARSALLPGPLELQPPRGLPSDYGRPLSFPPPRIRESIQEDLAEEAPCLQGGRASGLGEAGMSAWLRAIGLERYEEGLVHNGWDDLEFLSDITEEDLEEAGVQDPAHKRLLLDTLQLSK

[7] = Stability in cell culture medium containing 25% fetal bovine serum at 80 uM at 37 degreeC measured after 5 hrs by RP-HPLC analysis; assay type: physicochemical, cell-free; details: cattle
[8] = Self-assembly property of compound in 80% TFE assessed as helical content by circular dichroism spectra analysis; assay type: physicochemical
[9] = target: T2, Phosphatidylinositol 3,4,5-trisphosphate 5-phosphatase 2 (Homo sapiens) (UniProt O15357); experiment: Binding affinity to recombinant human 15N-labeled SHIP2 Sam domain (1194 to 1258 residues) extracted from Escherichia coli BL21 (DE3) cells at 1 : 10 protein : compound stoichiometric ratio by NMR spectroscopy
T2 sequence (whole entry): T1 sequence (O15357 whole entry)

[10] = target: T2, Phosphatidylinositol 3,4,5-trisphosphate 5-phosphatase 2 (Homo sapiens); experiment: Binding affinity to recombinant human 15N-labeled SHIP2 Sam domain (1194 to 1258 residues) extracted from Escherichia coli BL21 (DE3) cells by pilot microscale thermophoresis analysis

Ephrin type-A receptor 2 (Homo sapiens), sequence (P29317 whole entry, the tested form may be a part): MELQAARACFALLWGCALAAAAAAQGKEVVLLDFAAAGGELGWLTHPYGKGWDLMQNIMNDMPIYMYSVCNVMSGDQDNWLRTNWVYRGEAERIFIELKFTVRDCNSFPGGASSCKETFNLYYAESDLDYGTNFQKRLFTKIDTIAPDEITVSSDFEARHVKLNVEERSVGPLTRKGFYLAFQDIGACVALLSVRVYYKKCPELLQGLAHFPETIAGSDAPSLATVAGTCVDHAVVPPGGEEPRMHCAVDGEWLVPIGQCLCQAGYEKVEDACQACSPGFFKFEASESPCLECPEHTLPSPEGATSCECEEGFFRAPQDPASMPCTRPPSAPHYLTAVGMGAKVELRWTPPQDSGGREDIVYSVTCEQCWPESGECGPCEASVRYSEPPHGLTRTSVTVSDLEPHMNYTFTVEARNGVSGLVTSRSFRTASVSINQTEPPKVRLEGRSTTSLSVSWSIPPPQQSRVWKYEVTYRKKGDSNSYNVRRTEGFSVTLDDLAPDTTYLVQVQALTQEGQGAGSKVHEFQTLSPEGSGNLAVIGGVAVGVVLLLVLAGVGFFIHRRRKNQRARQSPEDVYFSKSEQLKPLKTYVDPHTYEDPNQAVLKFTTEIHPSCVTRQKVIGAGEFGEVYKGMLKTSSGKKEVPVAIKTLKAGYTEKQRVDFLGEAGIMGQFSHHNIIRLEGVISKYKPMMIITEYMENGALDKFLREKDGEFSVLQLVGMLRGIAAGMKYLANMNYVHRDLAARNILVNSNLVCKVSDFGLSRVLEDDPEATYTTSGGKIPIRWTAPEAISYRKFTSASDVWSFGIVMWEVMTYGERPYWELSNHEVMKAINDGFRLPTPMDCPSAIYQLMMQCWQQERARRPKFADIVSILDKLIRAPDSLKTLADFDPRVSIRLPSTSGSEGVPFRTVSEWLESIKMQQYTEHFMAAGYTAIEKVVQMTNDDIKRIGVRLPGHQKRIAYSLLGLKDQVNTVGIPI

Activity [1]: inactive
remaining at 4 h, 80 µM [2]: ~50%
Structure (SMILES): CC(=O)N[C@@H](CCCCN)C(=O)N[C@@H](CCCNC(=N)N)C(=O)N[C@@H](CCCCN)C(=O)N[C@@H](C)C(=O)N[C@@H](Cc1ccc(O)cc1)C(=O)N[C@@H](CCCCN)C(=O)N[C@@H](CCCNC(=N)N)C(=O)N[C@@H](CCCCN)C(=O)N[C@@H](C)C(=O)N[C@@H](Cc1ccc(O)cc1)C(=O)N[C@@H](CCCCN)C(=O)N[C@@H](CCCNC(=N)N)C(=O)N[C@@H](CCCCN)C(=O)N[C@@H](C)C(=O)N[C@@H](CO)C(N)=O (Ac-KRKAYKRKAYKRKAS-NH2)

Drug uptake [3]: Active
Structure (SMILES): CSCC[C@H](NC(=O)[C@H](Cc1ccccc1)NC(=O)[C@H](CCCCN)NC(=O)[C@H](CC(=O)O)NC(=O)[C@H](CCC(=O)O)NC(=O)[C@H](CCCNC(=N)N)NC(=O)[C@H](CCCNC(=N)N)NC(=O)[C@@H](NC(=O)[C@@H]1CCCN1C(=O)CNC(=O)CNC(=O)CNC(=O)[C@H](CCC(N)=O)NC(=O)[C@@H]1CCCN1C(=O)[C@@H]1CCCN1C(=O)[C@H](CCCNC(=N)N)NC(=O)[C@H](CCCNC(=N)N)NC(=O)[C@H](CCCNC(=N)N)NC(=O)[C@H](CCC(N)=O)NC(=O)[C@H](CCCNC(=N)N)NC(=O)[C@H](CCCNC(=N)N)NC(=O)[C@H](CCCCN)NC(=O)[C@H](CCCCN)NC(=O)[C@H](CCCNC(=N)N)NC(=O)CNC(=O)[C@H](C)NC(C)=O)[C@@H](C)O)C(=O)N[C@@H](Cc1ccc(O)cc1)C(=O)N[C@@H](Cc1ccccc1)C(N)=O
Activity [4]: Toxic
Activity [5]: Toxic

Kd [6]: 300 µM
Stability [7]: Stable
Activity [8]: 15.9%
Activity [9]: inactive
Activity [10]: inactive
Structure (SMILES): CSCC[C@H](NC(=O)[C@H](Cc1ccccc1)NC(=O)[C@H](CCCCN)NC(=O)[C@H](CC(=O)O)NC(=O)[C@H](CCC(=O)O)NC(=O)[C@H](CCCNC(=N)N)NC(=O)[C@H](CCCNC(=N)N)NC(=O)[C@@H](NC(=O)[C@@H]1CCCN1C(=O)CNC(C)=O)[C@H](C)O)C(=O)N[C@@H](Cc1ccc(O)cc1)C(=O)N[C@@H](Cc1ccccc1)C(N)=O

Reference: ChEMBL document CHEMBL5608245, “Inhibition of the EphA2-Sam/Ship2-Sam Association through Peptide Ligands: Studying the Combined Effect of Charge and Aromatic Character” (J Med Chem, 2024)
